From patent US9486440B2, “Uses of indole-ketones or indolidones as neuro-protective drugs” (UNIVERSITY OF MACAU, priority 2011, dated 2016)

Test system: dopaminergic neurons in zebrafish larval
Assay: MPTP zebrafish, TH-positive neuron count in paraffin sections
Type: in vivo
Description: Healthy zebrafish embryos were picked and dechorionated manually at 1 day post fertilization (dpf) then distributed into a 12-well plate with 20 fish embryos or a 6-well microplate with 30 fish embryos in each well. In pilot experiments, several doses of MPTP were added to embryo medium (final concentration from 50 to 800 μM) and 1 dpf fish embryo were treated for 48 hours, The optimal dose used (200 μM) induced a significant decrease in brain diencephalic dopaminergic neurons without any detectable systematic toxicity (data not shown). Thus subsequent studies were performed with 200 μM MPTP for whole-mount immunostaining and gene expression experiments.
After drug treatment, fixation of zebrafish larval was performed as the procedure in whole-mount immunostaining. The fixed specimens were then mounted on 1% agarose blocks in a common linear plane to ensure that the microtome blade passes through each specimen simultaneously. The specimen-containing agarose was converted into a sectionable paraffin wax block and conducted processes as described by Sabaliauskas et al., 2006. […] The results were analyzed by counting the numbers of TH-positive cells at ×20 magnifications on a stereomicroscope (BX51, Olympus Corp. Japan). TH-positive cells in 3 matched sections of each zebrafish were counted and averaged. […]

Cc1cc(C)c(/C=C2\C(=O)Nc3ccccc32)[nH]1 [SU5416, (3Z)-3-[(3,5-dimethyl-1H-pyrrol-2-yl)methylidene]-1,3-dihydro-2H-indol-2-one]
MPTP-induced loss of dopaminergic neurons (TH-positive neuron count) (200 μM MPTP, 1 μM SU5416, 2 days): obviously prevented the loss of dopaminergic neurons | number of dopaminergic neurons, drug alone (without MPTP): did not notably alter the number of dopaminergic neurons
